Laboratory results taken from BigSolDB 2.1.

Cc1nc2n(c(=O)c1CCN1CCC(c3noc4cc(F)ccc34)CC1)CCCC2
solubility (mole fraction) (in ethanol, 283.15 K): 0.00105 | solubility (mole fraction) (in ethanol, 283.16 K): 0.00104 | solubility (mole fraction) (in ethanol, 288.15 K): 0.00138 | solubility (mole fraction) (in ethanol, 288.16 K): 0.00138 | solubility (mole fraction) (in ethanol, 293.15 K): 0.0017 | solubility (mole fraction) (in ethanol, 293.16 K): 0.0017 | solubility (mole fraction) (in ethanol, 298.15 K): 0.00216 | solubility (mole fraction) (in ethanol, 303.15 K): 0.00272 | solubility (mole fraction) (in ethanol, 308.15 K): 0.0035 | solubility (mole fraction) (in ethanol, 313.15 K): 0.00438 | solubility (mole fraction) (in methanol, 283.15 K): 0.00239 | solubility (mole fraction) (in methanol, 283.16 K): 0.00239 | solubility (mole fraction) (in methanol, 288.15 K): 0.00294 | solubility (mole fraction) (in methanol, 288.16 K): 0.00294 | solubility (mole fraction) (in methanol, 293.15 K): 0.00363 | solubility (mole fraction) (in methanol, 293.16 K): 0.00363 | solubility (mole fraction) (in methanol, 298.15 K): 0.00443 | solubility (mole fraction) (in methanol, 298.16 K): 0.00443 | solubility (mole fraction) (in methanol, 303.15 K): 0.00546 | solubility (mole fraction) (in methanol, 303.16 K): 0.00546 | solubility (mole fraction) (in methanol, 308.15 K): 0.00673 | solubility (mole fraction) (in methanol, 308.16 K): 0.00674 | solubility (mole fraction) (in methanol, 313.15 K): 0.0083 | solubility (mole fraction) (in methanol, 313.16 K): 0.0083 | solubility (mole fraction) (in methanol, 318.15 K): 0.0101 | solubility (mole fraction) (in methanol, 318.16 K): 0.0101 | solubility (mole fraction) (in methanol, 323.15 K): 0.0121 | solubility (mole fraction) (in methanol, 323.16 K): 0.0121 | solubility (mole fraction) (in methanol, 328.15 K): 0.0148 | solubility (mole fraction) (in methanol, 328.16 K): 0.0148 | solubility (mole fraction) (in water, 283.15 K): 4.63e-08 | solubility (mole fraction) (in water, 283.16 K): 4.63e-08 | solubility (mole fraction) (in water, 288.15 K): 6.24e-08 | solubility (mole fraction) (in water, 288.16 K): 6.24e-08 | solubility (mole fraction) (in water, 293.15 K): 8.15e-08 | solubility (mole fraction) (in water, 293.16 K): 8.15e-08 | solubility (mole fraction) (in water, 298.15 K): 1.08e-07 | solubility (mole fraction) (in water, 298.16 K): 1.08e-07 | solubility (mole fraction) (in water, 303.15 K): 1.38e-07 | solubility (mole fraction) (in water, 303.16 K): 1.38e-07 | solubility (mole fraction) (in water, 308.15 K): 1.83e-07 | solubility (mole fraction) (in water, 308.16 K): 1.83e-07 | solubility (mole fraction) (in water, 313.15 K): 2.38e-07 | solubility (mole fraction) (in water, 313.16 K): 2.38e-07 | solubility (mole fraction) (in water, 318.15 K): 2.91e-07 | solubility (mole fraction) (in water, 318.16 K): 2.91e-07 | solubility (mole fraction) (in water, 323.15 K): 3.81e-07 | solubility (mole fraction) (in water, 323.16 K): 3.81e-07 | solubility (mole fraction) (in water, 328.15 K): 4.79e-07 | solubility (mole fraction) (in water, 328.16 K): 4.79e-07
